The text below walks through data of ChEMBL document CHEMBL1201862, “PubChem BioAssay data set” (2004).

The source made the active and inactive calls. Some results are limits rather than exact numbers.

In assay [1] the target is T1, Troponin, cardiac muscle (Homo sapiens, UniProt P19429+P45379+P63316). Put plainly: Fluorescence-based biochemical high throughput dose response assay for activators of the calcium sensitivity of cardiac Regulated Thin Filaments (RTF). [Related pubchem assays (depositor defined):AID493008, AID493018, AID504382, AID504383]. The format is protein-complex assay.
Assay [2] concerns the target Signal transducer and activator of transcription 3 (Homo sapiens, UniProt P40763). Put plainly: STAT3 blockade with qPCR and toxicity readouts – cell-based, STAT1 panel, cytotoxicity, late-stage follow-up, panel member STAT3 Inhibition (AID 2078).
For assay [3], the target named is Signal transducer and activator of transcription 1-alpha/beta (Homo sapiens, UniProt P42224). In words: STAT3 blockade with qPCR and toxicity readouts – cell-based, STAT1 panel, cytotoxicity, late-stage follow-up, panel member STAT1 Inhibition (AID 2078).
Another assay concerns the target Large T antigen (Simian virus 40, UniProt P03070). The format is functional, Betapolyomavirus macacae.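 Note: Confirmatory-stage PubChem screen for compounds that inhibit SV40 T antigen.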
In another assay the target is T2, Caspase-6 (Homo sapiens, UniProt P55212).
T2 sequence (P55212 whole entry): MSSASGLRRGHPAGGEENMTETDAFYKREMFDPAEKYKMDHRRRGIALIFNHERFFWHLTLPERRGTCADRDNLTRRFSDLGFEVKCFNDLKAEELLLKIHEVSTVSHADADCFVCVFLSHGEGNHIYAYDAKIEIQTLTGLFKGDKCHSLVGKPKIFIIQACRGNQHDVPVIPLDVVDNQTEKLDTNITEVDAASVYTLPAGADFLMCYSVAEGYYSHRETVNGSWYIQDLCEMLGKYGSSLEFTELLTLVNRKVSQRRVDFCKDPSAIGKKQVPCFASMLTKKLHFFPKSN
Put plainly: inhibition of CASP6 peptide cleavage – biochemical, VEID-R110 fluorescence, cherry-pick, dose response (AID 720632).

The next assay deals with Caspase-9 (Homo sapiens, UniProt P55211). In words: inhibitors of purified CASP9 protease – biochemical, fluorescence, plate reader, cherry-picked samples, selectivity assay for caspase-6 inhibitor project, dose response (AID 743293).
Assay [4] deals with NAD-dependent protein deacylase sirtuin-5, mitochondrial (Homo sapiens, UniProt Q9NXA8). Put plainly: sirtuin-5 deacylation blockers, concentration series – biochemical, fluorescence imaging, cherry-pick, set 5, dose response (AID 720591).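 Note: desuccinylation of succinyl peptide AMC substrate read as fluorescence after trypsin release; potency of inhibitors that lower fluorescence and may act on trypsin instead.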
In the next assay the target is Caspase-8 (Homo sapiens, UniProt Q14790). Put plainly: inhibitors of purified CASP8 protease – biochemical, Z-IETD-R110 fluorescence, cherry-picked samples, selectivity assay for caspase-6 inhibitor project, dose response (AID 743294).
Assay [5] has as its target T3, Small ubiquitin-related modifier 1 (Homo sapiens, UniProt P63165). In words: SUMO1 protein-protein binding blockers, potency – biochemical, FRET, dose response (AID 624383). The format is functional. The following applies: read-out: IC50_Mean.
Assay [6] deals with T3, Small ubiquitin-related modifier 1. Put plainly: SUMO1 protein interaction blockers, potency – biochemical, fluorescence polarization, uHTS hits, dose response (AID 624382). The format is functional. The note with it: read-out: IC50_Mean.
Assay [7] concerns the target T1, Troponin, cardiac muscle. Put plainly: compounds desensitizing RTF to calcium – biochemical, fluorescence, cardiac regulated thin filaments, triplicate IC50, dose response (AID 504742). The format is protein-complex assay.
The next assay deals with Genome polyprotein (Hepatitis C virus, UniProt Q2Q167). Put plainly: disruption of hepatitis C core self-association – biochemical, TR-FRET, dose response (AID 2159).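 Note: blocks dimerization of HCV core protein measured by TR-FRET between tagged core106 pairs.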 On the set-up: species or system Hepacivirus hominis.
The target in assay [8] is Voltage-dependent T-type calcium channel subunit alpha-1H (Homo sapiens, UniProt O95180). Put plainly: human CACNA1H calcium influx blockade – cell-based, synthetic library set 2, HEK293 HH8, Fluo-4, SAR follow-up (AID 493023). It counts as functional.
In assay [9] the target is T4, E3 ubiquitin-protein ligase XIAP (Homo sapiens, UniProt P98170). In words: SAR analysis of Antagonists of XIAP-Bir3 domain of IAP-family anti-apoptotic proteins. [Related pubchem assays (depositor defined):AID1018, AID1449, AID1513, AID1514, AID1638].
T4 sequence (P98170 whole entry, the tested form may be a part): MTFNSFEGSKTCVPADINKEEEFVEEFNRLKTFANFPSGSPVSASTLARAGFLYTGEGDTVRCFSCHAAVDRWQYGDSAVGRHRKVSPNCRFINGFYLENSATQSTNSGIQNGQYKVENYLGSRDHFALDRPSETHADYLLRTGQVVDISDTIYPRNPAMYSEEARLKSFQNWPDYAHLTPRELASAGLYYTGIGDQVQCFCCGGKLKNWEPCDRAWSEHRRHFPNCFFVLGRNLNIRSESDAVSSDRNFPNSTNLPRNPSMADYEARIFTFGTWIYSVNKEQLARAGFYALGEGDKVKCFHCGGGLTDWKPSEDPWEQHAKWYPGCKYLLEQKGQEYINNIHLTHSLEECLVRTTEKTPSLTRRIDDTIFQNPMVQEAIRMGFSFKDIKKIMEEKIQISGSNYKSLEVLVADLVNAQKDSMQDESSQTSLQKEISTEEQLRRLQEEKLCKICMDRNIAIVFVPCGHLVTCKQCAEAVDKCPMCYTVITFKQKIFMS
For assay [10], the target named is T4, E3 ubiquitin-protein ligase XIAP. Put plainly: SAR analysis of Antagonists of IAP-family anti-apoptotic proteins. [Related pubchem assays (depositor defined):AID1018, AID1449, AID1513, AID1514, AID1638].
For assay [11], the target named is T5, Voltage-gated N-type calcium channel alpha-1B subunit/Amyloid beta A4 precursor protein-binding family A member 1 (Homo sapiens, UniProt Q00975+Q02410). It counts as protein assay.
T5 sequence (Q00975 whole entry): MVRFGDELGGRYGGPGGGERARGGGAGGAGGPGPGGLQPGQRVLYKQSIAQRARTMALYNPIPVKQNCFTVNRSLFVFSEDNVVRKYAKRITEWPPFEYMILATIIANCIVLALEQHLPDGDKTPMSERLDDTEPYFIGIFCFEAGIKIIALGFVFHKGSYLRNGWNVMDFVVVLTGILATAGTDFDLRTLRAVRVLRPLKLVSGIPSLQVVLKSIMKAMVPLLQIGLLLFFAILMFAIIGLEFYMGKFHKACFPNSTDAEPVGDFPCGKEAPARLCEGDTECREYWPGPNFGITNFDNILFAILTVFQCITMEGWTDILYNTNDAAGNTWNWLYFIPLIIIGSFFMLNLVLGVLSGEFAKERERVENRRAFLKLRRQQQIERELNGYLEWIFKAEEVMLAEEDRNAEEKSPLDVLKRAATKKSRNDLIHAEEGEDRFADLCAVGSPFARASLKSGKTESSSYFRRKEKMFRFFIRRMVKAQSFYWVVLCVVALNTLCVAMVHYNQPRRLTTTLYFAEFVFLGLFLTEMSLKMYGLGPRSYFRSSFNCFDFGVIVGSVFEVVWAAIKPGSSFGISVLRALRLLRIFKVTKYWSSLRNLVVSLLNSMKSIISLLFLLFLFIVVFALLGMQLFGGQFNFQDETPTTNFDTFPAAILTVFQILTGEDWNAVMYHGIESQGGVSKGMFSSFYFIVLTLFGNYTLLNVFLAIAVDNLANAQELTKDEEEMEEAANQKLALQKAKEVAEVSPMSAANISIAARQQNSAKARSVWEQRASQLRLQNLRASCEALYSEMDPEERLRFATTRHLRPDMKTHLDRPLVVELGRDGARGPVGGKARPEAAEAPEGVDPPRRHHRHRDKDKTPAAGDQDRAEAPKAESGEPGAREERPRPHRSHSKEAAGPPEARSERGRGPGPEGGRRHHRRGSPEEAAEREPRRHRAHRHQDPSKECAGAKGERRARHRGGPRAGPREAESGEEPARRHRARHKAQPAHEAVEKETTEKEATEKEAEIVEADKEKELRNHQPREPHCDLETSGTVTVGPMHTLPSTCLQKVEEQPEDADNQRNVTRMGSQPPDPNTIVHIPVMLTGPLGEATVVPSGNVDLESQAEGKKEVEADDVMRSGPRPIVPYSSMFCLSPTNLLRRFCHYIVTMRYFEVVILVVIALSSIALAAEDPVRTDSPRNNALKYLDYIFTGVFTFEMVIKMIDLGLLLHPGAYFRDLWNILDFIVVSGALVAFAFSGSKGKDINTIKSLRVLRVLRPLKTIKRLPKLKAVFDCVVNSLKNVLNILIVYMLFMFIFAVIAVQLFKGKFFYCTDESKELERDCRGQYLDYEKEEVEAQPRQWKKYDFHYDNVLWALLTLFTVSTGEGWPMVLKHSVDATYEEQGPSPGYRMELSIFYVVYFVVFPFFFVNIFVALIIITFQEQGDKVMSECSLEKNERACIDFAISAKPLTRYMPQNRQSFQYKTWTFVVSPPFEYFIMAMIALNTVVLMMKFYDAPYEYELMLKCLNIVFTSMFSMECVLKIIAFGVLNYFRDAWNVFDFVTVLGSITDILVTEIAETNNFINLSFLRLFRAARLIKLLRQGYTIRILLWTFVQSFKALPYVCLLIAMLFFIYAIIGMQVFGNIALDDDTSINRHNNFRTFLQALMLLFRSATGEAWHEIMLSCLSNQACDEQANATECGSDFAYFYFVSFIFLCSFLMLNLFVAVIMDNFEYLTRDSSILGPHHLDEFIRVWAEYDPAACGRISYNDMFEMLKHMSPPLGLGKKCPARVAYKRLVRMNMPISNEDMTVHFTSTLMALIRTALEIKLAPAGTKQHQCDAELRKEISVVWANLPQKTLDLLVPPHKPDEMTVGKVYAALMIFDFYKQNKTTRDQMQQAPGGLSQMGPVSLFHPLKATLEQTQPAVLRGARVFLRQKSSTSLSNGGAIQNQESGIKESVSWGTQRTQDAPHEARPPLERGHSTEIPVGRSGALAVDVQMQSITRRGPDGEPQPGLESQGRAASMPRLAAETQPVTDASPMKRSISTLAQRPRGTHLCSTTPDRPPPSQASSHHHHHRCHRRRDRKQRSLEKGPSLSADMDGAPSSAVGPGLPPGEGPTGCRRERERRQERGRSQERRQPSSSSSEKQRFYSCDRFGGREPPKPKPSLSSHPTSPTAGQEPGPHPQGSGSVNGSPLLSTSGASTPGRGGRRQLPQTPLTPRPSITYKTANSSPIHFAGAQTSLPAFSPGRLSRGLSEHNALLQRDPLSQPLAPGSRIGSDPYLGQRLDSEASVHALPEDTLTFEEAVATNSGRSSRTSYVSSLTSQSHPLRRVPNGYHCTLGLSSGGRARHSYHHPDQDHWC
T5 sequence (Q02410 whole entry): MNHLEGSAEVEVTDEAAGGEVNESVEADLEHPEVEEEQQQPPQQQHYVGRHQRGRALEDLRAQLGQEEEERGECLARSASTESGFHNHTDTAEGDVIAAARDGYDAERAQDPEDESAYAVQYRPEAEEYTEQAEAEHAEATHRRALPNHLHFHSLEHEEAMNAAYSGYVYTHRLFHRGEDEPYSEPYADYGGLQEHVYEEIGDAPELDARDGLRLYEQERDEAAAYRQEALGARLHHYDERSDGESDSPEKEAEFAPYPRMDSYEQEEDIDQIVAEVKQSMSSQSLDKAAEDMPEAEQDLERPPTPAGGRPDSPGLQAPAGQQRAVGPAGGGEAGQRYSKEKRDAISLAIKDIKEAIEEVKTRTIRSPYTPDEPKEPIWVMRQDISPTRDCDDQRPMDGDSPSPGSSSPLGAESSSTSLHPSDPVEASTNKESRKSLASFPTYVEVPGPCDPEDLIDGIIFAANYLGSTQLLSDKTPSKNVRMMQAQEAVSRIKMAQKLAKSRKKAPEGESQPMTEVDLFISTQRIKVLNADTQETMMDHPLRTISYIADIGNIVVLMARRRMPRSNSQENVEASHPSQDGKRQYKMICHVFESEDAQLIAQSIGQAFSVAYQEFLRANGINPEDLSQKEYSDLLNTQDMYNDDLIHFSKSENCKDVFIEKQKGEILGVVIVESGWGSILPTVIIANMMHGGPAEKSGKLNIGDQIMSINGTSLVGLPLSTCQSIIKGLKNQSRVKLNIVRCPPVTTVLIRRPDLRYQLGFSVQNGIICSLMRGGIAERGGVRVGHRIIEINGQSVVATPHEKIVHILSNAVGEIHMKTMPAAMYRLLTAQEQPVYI
Assay [12] concerns the target T5, Voltage-gated N-type calcium channel alpha-1B subunit/Amyloid beta A4 precursor protein-binding family A member 1. It counts as protein assay. The source holds these as a separate data set.
Assay [13] addresses DNA damage-inducible transcript 3 protein (Mus musculus, UniProt P35639). The format is functional, Cricetulus griseus.
For assay [14], the target named is T6, Ubiquitin-conjugating enzyme E2 N (Homo sapiens, UniProt P61088).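 Note: Dose-response confirmation in a TR-FRET assay detecting UBC13-driven polyubiquitin chain formation, inhibition measured.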
T6 sequence (P61088 whole entry): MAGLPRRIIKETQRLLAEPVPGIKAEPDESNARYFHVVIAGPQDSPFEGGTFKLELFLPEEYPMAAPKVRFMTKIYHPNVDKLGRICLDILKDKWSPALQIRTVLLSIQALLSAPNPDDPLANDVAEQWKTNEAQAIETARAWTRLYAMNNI
It counts as functional.

Assay [15] deals with T7, Sphingosine 1-phosphate receptor 4 (Homo sapiens, UniProt O95977).
T7 sequence (O95977 whole entry): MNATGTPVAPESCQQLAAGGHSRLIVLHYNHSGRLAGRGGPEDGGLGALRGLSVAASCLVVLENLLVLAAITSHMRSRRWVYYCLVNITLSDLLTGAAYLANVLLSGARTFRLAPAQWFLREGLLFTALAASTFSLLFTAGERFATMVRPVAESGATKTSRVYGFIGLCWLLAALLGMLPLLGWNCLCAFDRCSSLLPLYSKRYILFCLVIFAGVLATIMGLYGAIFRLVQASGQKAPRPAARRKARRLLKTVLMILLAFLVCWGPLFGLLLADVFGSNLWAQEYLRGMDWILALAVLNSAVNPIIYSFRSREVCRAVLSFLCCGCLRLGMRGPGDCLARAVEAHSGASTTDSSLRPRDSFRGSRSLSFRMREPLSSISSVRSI
Put plainly: Late-stage fluorescence dose response cell-based assay to identify agonists of the Sphingosine 1-Phosphate Receptor 4 (S1P4): purchased compounds EC50. [Related pubchem assays (depositor defined):AID1509, AID1523, AID1563, AID1686, AID1701, AID1801]. The format is functional.

The target of assay [16] is T8, Tyrosine-protein phosphatase non-receptor type 7 (Homo sapiens, UniProt P35236).
T8 sequence (P35236 whole entry): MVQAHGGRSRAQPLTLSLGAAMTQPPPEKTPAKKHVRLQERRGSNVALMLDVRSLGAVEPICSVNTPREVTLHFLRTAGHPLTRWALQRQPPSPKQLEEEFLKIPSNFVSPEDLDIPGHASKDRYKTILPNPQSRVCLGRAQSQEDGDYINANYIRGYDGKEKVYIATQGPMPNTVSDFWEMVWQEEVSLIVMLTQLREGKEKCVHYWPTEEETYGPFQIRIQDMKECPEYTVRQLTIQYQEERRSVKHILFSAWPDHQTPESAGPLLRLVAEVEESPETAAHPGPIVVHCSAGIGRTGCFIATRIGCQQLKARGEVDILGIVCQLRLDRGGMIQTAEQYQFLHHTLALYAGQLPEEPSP
Put plainly: inhibition of hematopoietic tyrosine phosphatase HePTP – biochemical, set 2, SAR follow-up (AID 449736). It counts as functional.

The target of assay [17] is T9, Alkaline phosphatase, tissue-nonspecific isozyme (Homo sapiens, UniProt P05186).
T9 sequence (P05186 whole entry): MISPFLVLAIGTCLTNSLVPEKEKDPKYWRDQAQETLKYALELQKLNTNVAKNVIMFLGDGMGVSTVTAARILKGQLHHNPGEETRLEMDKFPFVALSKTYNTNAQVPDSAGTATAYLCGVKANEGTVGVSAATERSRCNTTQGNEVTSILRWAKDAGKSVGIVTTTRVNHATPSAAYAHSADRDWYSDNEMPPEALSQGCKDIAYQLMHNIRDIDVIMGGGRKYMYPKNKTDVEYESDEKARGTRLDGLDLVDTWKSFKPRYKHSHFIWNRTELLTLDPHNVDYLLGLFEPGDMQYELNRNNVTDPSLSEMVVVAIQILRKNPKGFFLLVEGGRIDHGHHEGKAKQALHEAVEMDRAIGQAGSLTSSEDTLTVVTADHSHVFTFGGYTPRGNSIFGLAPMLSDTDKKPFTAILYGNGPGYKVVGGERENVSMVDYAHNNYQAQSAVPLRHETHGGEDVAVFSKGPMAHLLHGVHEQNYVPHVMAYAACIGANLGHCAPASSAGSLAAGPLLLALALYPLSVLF
In words: potency against alkaline phosphatase TNAP – biochemical, luminescent, dose response, SAR follow-up (AID 1056).

Assay [18] deals with Alkaline phosphatase, placental type (Homo sapiens, UniProt P05187). In words: human placental alkaline phosphatase inhibition – biochemical, luminescence, confirmation (AID 1512). The format is functional.
Alkaline phosphatase, placental type, sequence (P05187 whole entry): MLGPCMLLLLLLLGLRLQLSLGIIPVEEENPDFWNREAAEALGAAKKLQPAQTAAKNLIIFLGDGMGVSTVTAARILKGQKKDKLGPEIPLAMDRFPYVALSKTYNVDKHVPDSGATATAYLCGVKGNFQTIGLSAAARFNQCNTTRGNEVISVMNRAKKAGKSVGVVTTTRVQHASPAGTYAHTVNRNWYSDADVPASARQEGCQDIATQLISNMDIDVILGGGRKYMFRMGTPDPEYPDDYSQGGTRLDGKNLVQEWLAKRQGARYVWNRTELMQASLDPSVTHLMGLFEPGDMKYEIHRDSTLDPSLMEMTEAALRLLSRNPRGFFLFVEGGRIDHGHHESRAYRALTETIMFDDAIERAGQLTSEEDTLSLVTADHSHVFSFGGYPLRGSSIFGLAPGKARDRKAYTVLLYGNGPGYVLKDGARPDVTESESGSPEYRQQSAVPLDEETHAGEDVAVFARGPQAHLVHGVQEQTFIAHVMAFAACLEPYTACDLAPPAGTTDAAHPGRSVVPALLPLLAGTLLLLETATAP

T3 sequence (P63165 whole entry): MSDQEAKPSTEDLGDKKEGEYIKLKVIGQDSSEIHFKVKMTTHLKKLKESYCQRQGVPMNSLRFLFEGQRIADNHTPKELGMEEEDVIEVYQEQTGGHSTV
Signal transducer and activator of transcription 3, sequence (P40763 whole entry): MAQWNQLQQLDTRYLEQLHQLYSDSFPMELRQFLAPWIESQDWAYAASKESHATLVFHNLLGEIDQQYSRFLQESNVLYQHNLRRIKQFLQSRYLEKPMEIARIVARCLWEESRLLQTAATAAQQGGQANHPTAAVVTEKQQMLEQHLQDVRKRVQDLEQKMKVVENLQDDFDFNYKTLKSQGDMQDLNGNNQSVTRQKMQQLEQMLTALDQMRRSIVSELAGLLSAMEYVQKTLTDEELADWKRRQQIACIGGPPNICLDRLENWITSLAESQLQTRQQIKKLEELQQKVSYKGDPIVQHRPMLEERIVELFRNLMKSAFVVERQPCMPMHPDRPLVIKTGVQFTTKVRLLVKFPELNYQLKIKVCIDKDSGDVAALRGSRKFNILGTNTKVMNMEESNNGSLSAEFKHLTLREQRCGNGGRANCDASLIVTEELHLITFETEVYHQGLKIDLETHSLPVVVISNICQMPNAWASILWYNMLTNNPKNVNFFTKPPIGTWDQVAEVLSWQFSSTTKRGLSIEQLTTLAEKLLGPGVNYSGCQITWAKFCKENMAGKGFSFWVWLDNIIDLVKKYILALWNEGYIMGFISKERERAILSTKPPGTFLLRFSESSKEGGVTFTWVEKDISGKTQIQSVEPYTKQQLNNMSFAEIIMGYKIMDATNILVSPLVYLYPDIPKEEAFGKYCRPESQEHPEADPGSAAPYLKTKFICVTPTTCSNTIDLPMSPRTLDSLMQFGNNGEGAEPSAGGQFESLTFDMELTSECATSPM

In the case of `COc1ccc(/C=N/NC(=O)c2cccnc2)cc1CN1CCOCC1`, the EC50 at Troponin, cardiac muscle [1] was > 71.5 µM (inactive).

As for `c1ccc(CC2CCN(c3ncnc4sc5c(c34)CCC5)CC2)cc1`, the IC50 in assay [2] was 20 µM (inactive); in assay [3], > 55.7 µM (inactive).

Consider `COCCN(C(=O)COC(=O)c1cc2c(s1)CCC2)c1c(N)n(Cc2ccccc2)c(=O)[nH]c1=O`, for which the IC50 is 57.7 µM (active) on Large T antigen; 1.42 µM (active) in assay [5]; > 66.6 µM (inactive) in [6]; 19.7 µM (inactive) at Troponin, cardiac muscle [7]; 48.6 µM (not active) against Genome polyprotein. For the same compound, the AC50 on Caspase-6 was 0.198 µM (active); at Caspase-9 it was 12.1 µM (active); in [4], > 30 µM (inactive); on Caspase-8 it was > 70 µM (inactive).

Regarding `CC(C)(C)CCN1CCC[C@H](NC(=O)c2ccc(Cl)cc2Cl)C1`, the EC50 in assay [8] was 10 µM (active).

As to `CN[C@@H](C)C(=O)NC1CCCN(CC(=O)NC2CCc3ccccc3C2)C1=O` (stereo partly drawn), the IC50 in assay [9] and in assay [10] was > 100 µM (inactive) throughout.

As to `COc1ccc(NC(=O)c2cc3c(=O)n(C)c4ccccc4c3s2)cc1OC`, the results for the IC50 in [11] and in assay [12] were 8 µM (active) and > 50 µM (inactive), respectively.

Regarding `CCOC(=O)c1cc(-c2ccccc2)nc2c1c(C)nn2-c1ccccn1`, the “Absolute IC50 (CHOP)” value in assay [13] worked out at 10 µM. Moreover, the IC50 in [14] was > 20 µM (inactive).

With `Cc1ccc(Oc2ncc(Cl)cc2Cl)c([N+](=O)[O-])n1`, in assay [15], the EC50 was > 50 µM (inactive).

As for `Cc1ccc(-n2c(N)c(C(=O)N3CCN(c4ccccc4F)CC3)sc2=S)cc1`, the IC50 in assay [16] is > 100 µM (inactive).

For the compound `C=CCn1c(SCC(=O)c2ccc(O)c(O)c2)nnc1-c1ccc(C)cc1`, the figures for the IC50 in assay [17] and in [18] were > 100 µM (inactive) and 8.57 µM (active), respectively.
